Experimental data: US20230272465A1, “Systems and Methods to Enhance RNA Transcription and Uses Thereof” (The Board of Trustees of the Leland Stanford Junior …, priority 2020, published 2023)
Entries after “also recorded” stand apart in the source; their conditions may differ.

Assays:
Format in all cases: biochemical
T7 RNA polymerase [1] = molecular target: T1, T7 RNA polymerase (Escherichia phage T7, UniProt P00573); assay: Real-time RNA transcription reaction with T7 polymerase (fluorescence, TECAN plate reader); conditions: 10 mM VRC, room temperature (~20° C.), 9000 seconds, FIG. 1A
T1 sequence (P00573 whole entry): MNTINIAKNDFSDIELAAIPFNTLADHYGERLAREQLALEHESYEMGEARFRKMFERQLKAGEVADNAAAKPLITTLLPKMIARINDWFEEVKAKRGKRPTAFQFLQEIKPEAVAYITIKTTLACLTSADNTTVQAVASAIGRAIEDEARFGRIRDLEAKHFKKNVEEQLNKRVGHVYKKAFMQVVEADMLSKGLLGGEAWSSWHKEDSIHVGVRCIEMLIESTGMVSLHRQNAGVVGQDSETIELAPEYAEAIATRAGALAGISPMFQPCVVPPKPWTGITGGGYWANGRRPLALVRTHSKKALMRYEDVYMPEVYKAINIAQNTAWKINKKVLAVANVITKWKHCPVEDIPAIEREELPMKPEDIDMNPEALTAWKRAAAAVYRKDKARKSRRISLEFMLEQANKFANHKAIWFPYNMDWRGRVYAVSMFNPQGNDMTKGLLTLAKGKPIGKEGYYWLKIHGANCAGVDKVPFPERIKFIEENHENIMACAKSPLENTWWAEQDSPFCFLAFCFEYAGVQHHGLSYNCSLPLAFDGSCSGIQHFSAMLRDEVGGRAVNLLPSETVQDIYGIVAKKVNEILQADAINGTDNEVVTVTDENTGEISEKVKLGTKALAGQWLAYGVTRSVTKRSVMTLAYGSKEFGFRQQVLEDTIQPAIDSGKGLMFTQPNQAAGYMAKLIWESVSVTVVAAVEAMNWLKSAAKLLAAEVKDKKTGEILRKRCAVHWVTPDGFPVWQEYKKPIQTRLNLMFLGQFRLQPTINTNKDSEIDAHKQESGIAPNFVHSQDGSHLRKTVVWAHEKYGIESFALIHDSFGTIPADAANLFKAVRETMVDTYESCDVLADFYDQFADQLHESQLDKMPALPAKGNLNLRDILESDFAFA
Experimental: Methods: A series of standard RNA transcription reactions were performed using T7 polymerase spiked with 0 mM, 0.1 mM, 1 mM, and 10 mM VRC. The reaction was performed at room temperature (˜20° C.) for 9000 seconds in a TECAN plate reader. Reaction yield was measured in reach reaction by measuring fluorescence in real-time using the TECAN plate reader.

SP6 RNA polymerase = molecular target: T2, SP6 RNA polymerase (Enterobacteria phage SP6, UniProt P06221); assay: Real-time monitoring of SP6 RNA polymerase transcription reaction; conditions: FIG. 1B
T2 sequence (P06221 1-874): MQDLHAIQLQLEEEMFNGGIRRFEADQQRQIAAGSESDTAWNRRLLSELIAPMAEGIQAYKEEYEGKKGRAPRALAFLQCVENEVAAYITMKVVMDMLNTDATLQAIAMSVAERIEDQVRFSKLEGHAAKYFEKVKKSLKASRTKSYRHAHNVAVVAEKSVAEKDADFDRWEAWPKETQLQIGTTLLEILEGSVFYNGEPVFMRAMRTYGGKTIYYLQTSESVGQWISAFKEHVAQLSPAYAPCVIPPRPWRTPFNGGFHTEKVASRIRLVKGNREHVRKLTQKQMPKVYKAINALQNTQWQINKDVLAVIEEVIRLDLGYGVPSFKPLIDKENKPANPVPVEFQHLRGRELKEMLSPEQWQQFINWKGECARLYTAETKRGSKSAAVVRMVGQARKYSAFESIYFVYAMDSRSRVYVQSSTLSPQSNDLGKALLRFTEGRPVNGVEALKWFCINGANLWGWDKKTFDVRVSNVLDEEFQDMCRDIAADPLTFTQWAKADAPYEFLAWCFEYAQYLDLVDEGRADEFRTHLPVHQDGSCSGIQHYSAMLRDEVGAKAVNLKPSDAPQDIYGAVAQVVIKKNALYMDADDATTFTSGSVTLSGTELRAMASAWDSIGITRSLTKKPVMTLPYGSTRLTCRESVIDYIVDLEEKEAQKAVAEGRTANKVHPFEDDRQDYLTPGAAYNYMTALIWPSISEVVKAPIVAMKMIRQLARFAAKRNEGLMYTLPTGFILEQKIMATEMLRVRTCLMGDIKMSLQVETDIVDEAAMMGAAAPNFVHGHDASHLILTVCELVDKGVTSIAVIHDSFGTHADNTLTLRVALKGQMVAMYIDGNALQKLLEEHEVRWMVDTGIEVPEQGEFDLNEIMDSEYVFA
Experimental: Turning to FIGS. 1A-1B, exemplary data of RNA yield measured from real time monitoring of RNA transcription reactions in accordance with certain embodiments are illustrated. In particular, FIG. 1A illustrates exemplary T7 RNA polymerase transcription reaction embodiments using 0.1 mM, 1 mM, and 10 mM concentrations of VRC against a 0 mM control.
However, FIG. 1B illustrates exemplary SP6 RNA polymerase transcription reaction embodiments using 0.1 mM, 1 mM, and 10 mM concentrations of VRC against a 0 mM control.

T7 RNA polymerase [2] = molecular target: T1, T7 RNA polymerase; assay: Gel electrophoresis of T7 transcription reaction products; conditions: 0.1 mM, 1 mM, 10 mM VRC versus 0 mM control; FIG. 3
Experimental: Methods: A series of standard RNA transcription reactions were performed using T7 polymerase spiked with 0 mM, 0.1 mM, 1 mM, and 10 mM VRC. Post-incubation, the contents of each reaction were electrophoresed on a gel to qualitatively identify reaction product sizes.

T7 RNA polymerase [3] = molecular target: T1, T7 RNA polymerase; assay: RNA yield after post-reaction clean-up, T7 polymerase transcription (NanoDrop UV-Vis); conditions: 37° C., 4 hours, FIG. 2
Experimental: Methods: A series of standard RNA transcription reactions were performed using T7 polymerase spiked with 0 mM, 0.1 mM, 1 mM, and 10 mM VRC. The reaction was performed at 37° C. for 4 hours in a thermocycler. A post-reaction clean-up was used to remove any reagents, including enzymes, NTPs, buffers. The reaction was quantified using a NanoDrop UV-Vis spectrometer.

In the case of ribonucleoside vanadyl complex [VRC], the “increase in RNA yield over 0 mM control” value (T7 RNA polymerase [1]) is reported as roughly 1.5 fold, the “RNA yield versus 0 mM control” value (SP6 RNA polymerase; 0.1 mM VRC) is reported as “no advantage in yield over the control” and the “RNA yield versus 0 mM control” value (SP6 RNA polymerase; 1 mM VRC) is reported as “inhibition of SP6 RNA polymerase”. For the same substance, the “RNA yield versus 0 mM control” value (SP6 RNA polymerase; 10 mM VRC) was “inhibition of SP6 RNA polymerase”, the “reaction product sizes / degradation products on gel” value (T7 RNA polymerase [2]) was “no degradation of products; also recorded: no discernable differences in product sizes” and the “increase in RNA yield over 0 mM control” value (T7 RNA polymerase [3]; 0.1 mM VRC) was “approximately 2.3 fold”. For the same substance, the “increase in RNA yield over 0 mM control” value (T7 RNA polymerase [3]; 1 mM VRC) was “approximately 1.7 fold” and the “increase in RNA yield over 0 mM control” value (T7 RNA polymerase [3]; 10 mM VRC) was “approximately 1.5 fold”.
